PMC2943425 (Journal of medicinal chemistry, 2010)

Assays:
[1] = molecular target: Substance P receptors (GPI) (Cavia porcellus, UniProt P30547); assay: GPI substance P antagonist assay in the presence of 1 μM naloxone; design: species or system guinea pig; conditions: against Substance P induced contraction, n = 4
neuropathic pain = conditions: cited from earlier work

Chain of Substance P receptors (GPI) (P30547 whole entry): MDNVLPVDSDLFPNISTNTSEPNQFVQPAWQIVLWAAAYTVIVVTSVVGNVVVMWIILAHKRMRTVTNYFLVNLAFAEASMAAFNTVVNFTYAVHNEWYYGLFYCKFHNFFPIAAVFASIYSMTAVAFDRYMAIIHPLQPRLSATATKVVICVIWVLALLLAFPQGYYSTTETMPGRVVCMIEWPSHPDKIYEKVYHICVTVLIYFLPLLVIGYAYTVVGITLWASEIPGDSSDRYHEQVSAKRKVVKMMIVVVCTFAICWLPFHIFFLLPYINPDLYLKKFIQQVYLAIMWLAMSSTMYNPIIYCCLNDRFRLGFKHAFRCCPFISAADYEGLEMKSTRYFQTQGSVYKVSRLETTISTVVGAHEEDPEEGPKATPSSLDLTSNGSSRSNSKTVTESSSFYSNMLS

| Molecule | SP antagonist Ke, GPI [1] [nM] | effect on neuropathic pain in animal models (neuropathic pain) | opioid-induced tolerance in animal models (neuropathic pain) |
| --- | --- | --- | --- |
| CC(=O)N[C@@H](Cc1c[nH]c2ccccc12)C(=O)OCc1cc(C(F)(F)F)cc(C(F)(F)F)c1 [L-732,138] | 250 ± 87 |  |  |
| Tyr^1-D-Ala^2-Gly^3-Phe^4-Met^5-Pro^6-Leu^7-Trp^8-O-[3′,5′-(CF3)2-Bzl] [TY005] |  | powerful attenuation of neuropathic pain | without producing the opioid-induced tolerance |
